In ChEMBL document CHEMBL3044627, “Residual and sublethal effects of fenpyroximate and pyridaben on the instantaneous rate of increase of Tetranychus urticae” (Crop Prot, 2006) one finds EC50 and Activity data, which are given here for two molecules.

Calls of active or inactive are those of the source. The calls are words filed in the database; no cut-off is given here.

Assay type in all cases: functional, organism-based
Test [1] deals with Tetranychus urticae. Nature of the test: Acaricidal activity against Tetranychus urticae (two-spotted spider mite) infested kidney bean leaves assessed as decrease in reproduction of survivors applied as spray after 7 days.
The test system of test [2] is Tetranychus urticae. As to the kind of experiment: Acaricidal activity against Tetranychus urticae (two-spotted spider mite) infested kidney bean leaves assessed as decrease in reproduction of survivors applied as spray after 5 days.
In test [3] the test system is Tetranychus urticae. Nature of the test: Acaricidal activity against Tetranychus urticae (two-spotted spider mite) infested kidney bean leaves assessed as decrease in reproduction of survivors applied as spray after 3 days.
The test system of test [4] is Tetranychus urticae. As to the kind of experiment: Acaricidal activity against Tetranychus urticae (two-spotted spider mite) infested kidney bean leaves assessed as decrease in survivors of progeny applied as spray after 7 days.
Test [5] has as its system Tetranychus urticae. Nature of the test: Acaricidal activity against Tetranychus urticae (two-spotted spider mite) infested kidney bean leaves assessed as decrease in survivors of progeny applied as spray after 5 days.
The test system of test [6] is Tetranychus urticae. As to the kind of experiment: Acaricidal activity against Tetranychus urticae (two-spotted spider mite) infested kidney bean leaves assessed as decrease in survivors of progeny applied as spray after 3 days.
Test [7] deals with Tetranychus urticae. As to the kind of experiment: Acaricidal activity against Tetranychus urticae (two-spotted spider mite) infested kidney bean leaves assessed as decrease in survivors of progeny applied as spray after 1 day.
For test [8], the system named is Tetranychus urticae. Nature of the test: Acaricidal activity against Tetranychus urticae (two-spotted spider mite) infested kidney bean leaves assessed as decrease in reproduction of survivors applied as spray after 9 days.
Test [9] relates to Tetranychus urticae. As to the kind of experiment: Acaricidal activity against Tetranychus urticae (two-spotted spider mite) infested kidney bean leaves assessed as decrease in immature production at 6.4 to 46.6 ppm applied as spray after 3 to 6 days.
The subject of test [10] is Tetranychus urticae. Nature of the test: Acaricidal activity against Tetranychus urticae (two-spotted spider mite) infested kidney bean leaves assessed as decrease in survival at 6.4 to 46.6 ppm applied as spray after 7 to 9 days relative to control.
For test [11], the system named is Tetranychus urticae. As to the kind of experiment: Acaricidal activity against Tetranychus urticae (two-spotted spider mite) infested kidney bean leaves assessed as decrease in survival at 6.4 to 46.6 ppm applied as spray up to 5 days relative to control.
The subject of test [12] is Tetranychus urticae. As to the kind of experiment: Acaricidal activity against Tetranychus urticae (two-spotted spider mite) infested kidney bean leaves assessed as decrease in reproduction of survivors applied as spray after 1 day.
In test [13] the test system is Tetranychus urticae. As to the kind of experiment: Acaricidal activity against Tetranychus urticae (two-spotted spider mite) infested kidney bean leaves assessed as decrease in survivors of progeny applied as spray after 9 days.
Test [14] has as its system Tetranychus urticae. As to the kind of experiment: Acaricidal activity against Tetranychus urticae (two-spotted spider mite) infested kidney bean leaves assessed as decrease in immature production at 2101 ppm applied as spray after 3 to 6 days.
Test [15] has as its system Tetranychus urticae. Nature of the test: Acaricidal activity against Tetranychus urticae (two-spotted spider mite) infested kidney bean leaves assessed as decrease in egg production applied as spray after 3 to 6 days.
For test [16], the system named is Tetranychus urticae. Nature of the test: Acaricidal activity against Tetranychus urticae (two-spotted spider mite) infested kidney bean leaves assessed as decrease in survival at 2101.3 to 20446.5 ppm applied as spray after 3 days relative to control.

Regarding `Cc1nn(C)c(Oc2ccccc2)c1/C=N/OCc1ccc(C(=O)OC(C)(C)C)cc1` [FENPYROXYMATE], the EC50 in test [1] came out at 124 ppm; in test [2] it was 130.8 ppm; in test [3], 131.1 ppm; in test [4], 70.1 ppm; in test [5] it was 72.7 ppm; in test [6] it was 99 ppm. The EC50 in [7] is on record as 116.2 ppm; in test [8] it was 253.7 ppm; in test [12], 114.6 ppm; in [13] it was 104 ppm. Moreover, the result in test [9] and in test [11] was Active. Also, the result in test [10] was inactive.

As to `CC(C)(C)c1ccc(CSc2cnn(C(C)(C)C)c(=O)c2Cl)cc1` [PYRIDABEN], the EC50 in [1] is 19425.1 ppm; in test [2], 19439.6 ppm; in test [3], 19162.1 ppm; in test [8], 49880.7 ppm; in [12], 9118.1 ppm. Besides, the outcome in [14] was Active. Further, the Activity result in [15] is “Dose-dependent effect”. The result in test [16] was inactive.
